Tested on: GNS166 cells
Assay: Microarray whole-transcriptome gene expression analysis
Format: cell-based, human
Conditions: DMSO vs 5 µM SAHA, upregulated genes
Experimental: Whole-transcriptome analysis was performed from 300 ng of RNA using HuGene-2_0-st-v1 expression array (Affymetrix), which covers 48,226 transcripts. Raw data were first checked for quality purposes through the Affymetrix® Expression Console™ Software v1.4.1 and TAC software v4.0. Then, data were normalized using the Robust Multi-array Average (RMA) and analyzed by Limma tool. Probesets with FDR-corrected p-values smaller than 0.05 were selected. Functional enrichment on Gene Ontology (GO) biological processes was performed on a smaller subset of the differentially expressed genes (corrected p-value < 0.001) by means of Broad Institute GSEA. […] The data that support this study have been deposited in NCBI´s Gene Expression Omnibus and are accessible through GEO series accession number GSE143887.

## O=C(CCCCCCC(=O)Nc1ccccc1)NO [SAHA, Suberoylanilide hydroxamic acid]
Transcript TC0500012531.hg.1
  logFC NMUR2: 2.3
Transcript TC0600007862.hg.1
  logFC PIM1: 1.267
Transcript TC0600008632.hg.1
  logFC BCKDHB: 0.8913
Transcript TC0600009143.hg.1
  logFC SLC16A10: 1.06
Transcript TC0600009508.hg.1
  logFC TBPL1: 0.8103
Transcript TC0600011661.hg.1
  logFC STK38: 0.8577
Transcript TC0600013119.hg.1
  logFC SOGA3: 1.659
Transcript TC0600013193.hg.1
  logFC STX7: 1.104
Transcript TC0600014148.hg.1
  logFC CYB5R4: 0.9356
Transcript TC0700006737.hg.1
  logFC ARL4A: 1.551
Transcript TC0700006795.hg.1
  logFC AHR: 1.0742
Transcript TC0700007475.hg.1
  logFC C7orf57: 1.163
Transcript TC0700008745.hg.1
  logFC PRKAR2B: 1.383
Transcript TC0700008898.hg.1
  logFC ANKRD7: 1.335
Transcript TC0700009020.hg.1
  logFC SND1: 0.9855
Transcript TC0700009060.hg.1
  logFC FAM71F1: 1.462
Transcript TC0700010327.hg.1
  logFC DGKB: 0.979
Transcript TC0700011601.hg.1
  logFC TMEM60: 0.8857
Transcript TC0700012427.hg.1
  logFC FAM3C: 0.9259
Transcript TC0700012456.hg.1
  logFC IQUB: 1.539
Transcript TC0700013603.hg.1
  logFC RASA4: 1.334
Transcript TC0800006802.hg.1
  logFC KIAA1456: 1.838
Transcript TC0800006873.hg.1
  logFC PDGFRL: 1.146
Transcript TC0800010275.hg.1
  logFC PLAT: 1.063
Transcript TC0800010926.hg.1
  logFC PAG1: 1.472
Transcript TC0800011579.hg.1
  logFC EXT1: 1.229
Transcript TC0800012325.hg.1
  logFC SLC26A7: 0.8985
Transcript TC0900007667.hg.1
  logFC PSAT1: 0.8807
Transcript TC0900009679.hg.1
  logFC MLLT3: 1.79
Transcript TC0900010350.hg.1
  logFC APBA1: 1.1769
Transcript TC0900011501.hg.1
  logFC NR6A1: 1.227
Transcript TC0900012245.hg.1
  logFC ALDH1A1: 1.351
Transcript TC0900012256.hg.1
  logFC CDC14B: 1.18
Transcript TC1000007132.hg.1
  logFC BAMBI: 1.194
Transcript TC1000010006.hg.1
  logFC DNAJC1: 1.349
Transcript TC1100006749.hg.1
  logFC ZNF215: 1.332
Transcript TC1100008948.hg.1
  logFC GRIA4: 1.769
Transcript TC1100009023.hg.1
  logFC C11orf88: 1.468
Transcript TC1100009026.hg.1
  logFC SIK2: 0.9192
Transcript TC1100009398.hg.1
  logFC NRGN: 0.9705
Transcript TC1100011867.hg.1
  logFC FZD4: 1.1951
Transcript TC1100012052.hg.1
  logFC CCDC82: 0.8598
Transcript TC1100012318.hg.1
  logFC IL18: 1.544
Transcript TC1100012722.hg.1
  logFC CDON: 2.237
Transcript TC1100013043.hg.1
  logFC FAM89B: 0.8784
Transcript TC1100013131.hg.1
  logFC IGF2: 1.158
Transcript TC1200006948.hg.1
  logFC C12orf60: 1.183
Transcript TC1200007147.hg.1
  logFC ARNTL2: 1.2211
Transcript TC1200007809.hg.1
  logFC GDF11: 1.519
Transcript TC1200008322.hg.1
  logFC TMTC2: 1.0601
Transcript TC1200008373.hg.1
  logFC TMTC3: 1.159
Transcript TC1200008675.hg.1
  logFC TXNRD1: 0.8282
Transcript TC1200009157.hg.1
  logFC P2RX7: 1.148
Transcript TC1200010612.hg.1
  logFC RHEBL1: 1.826
Transcript TC1200011474.hg.1
  logFC ATP2B1: 1.035
Transcript TC1300007085.hg.1
  logFC LRRC63: 1.37
Transcript TC1300008468.hg.1
  logFC SLC46A3: 1.1281
Transcript TC1300008497.hg.1
  logFC UBL3: 0.9113
Transcript TC1300008840.hg.1
  logFC LCP1: 1.339
Transcript TC1300009249.hg.1
  logFC KLF12: 1.022
Transcript TC1300009376.hg.1
  logFC SLITRK1: 1.004
Transcript TC1400006791.hg.1
  logFC FOXG1: 0.91
Transcript TC1400007221.hg.1
  logFC SOCS4: 0.9561
Transcript TC1400007307.hg.1
  logFC ARID4A: 0.9227
Transcript TC1400008705.hg.1
  logFC SLC7A8: 1.877
Transcript TC1400009239.hg.1
  logFC GCH1: 1.069
Transcript TC1400010737.hg.1
  logFC KLHL28: 1.205
Transcript TC1500007238.hg.1
  logFC TMOD2: 1.505
Transcript TC1500007735.hg.1
  logFC LRRC49: 1.1742
Transcript TC1500009804.hg.1
  logFC DENND4A: 1.04
Transcript TC1500009921.hg.1
  logFC UACA: 1.398
Transcript TC1500010501.hg.1
  logFC RGMA: 0.8186
Transcript TC1600009952.hg.1
  logFC YPEL3: 1.349
Transcript TC1600011362.hg.1
  logFC ACSM3: 1.318
Transcript TC1700007344.hg.1
  logFC NLK: 1.006
Transcript TC1700008209.hg.1
  logFC NGFR: 1.322
Transcript TC1700008418.hg.1
  logFC DYNLL2: 0.9396
Transcript TC1700010358.hg.1
  logFC MYO1D: 1.521
Transcript TC1700011181.hg.1
  logFC MMD: 0.9396
Transcript TC1700011953.hg.1
  logFC CBX4: 1.178
Transcript TC1900009984.hg.1
  logFC UNC13A: 2.076
Transcript TC1900010008.hg.1
  logFC KIAA1683: 1.003
Transcript TC1900011842.hg.1
  logFC DIRAS1: 0.9114
Transcript TC2000009058.hg.1
  logFC TGM2: 1.058
Transcript TC2000009809.hg.1
  logFC KCNQ2: 1.266
Transcript TC2000009960.hg.1
  logFC SRXN1: 0.9857
Transcript TC2100007166.hg.1
  logFC SH3BGR: 0.8256
Transcript TC2100007821.hg.1
  logFC ADAMTS1: 1.343
Transcript TC2200007150.hg.1
  logFC TIMP3: 0.905

— article PMC7265429, “Characterization of a new small-molecule inhibitor of HDAC6 in glioblastoma” (Cell Death & Disease, 2020)
